Results as given in PMC9301721 (ACS Omega, 2022).

B1: 14-3-3εΔC (aa 1-232) (domain or fragment, human, UniProt P62258 1-232, looked up)
chain: MDDREDLVYQAKLAEQAERYDEMVESMKKVAGMDVELTVEERNLLSVAYKNVIGARRASWRIISSIEQKEENKGGEDKLKMIREYRQMVETELKLICCDILDVLDKHLIPAANTGESKVFYYKMKGDYHRYLAEFATGNDRKEAAENSLVAYKAASDIAMTELPPTHPIRLGLALNFSVFYYEILNSPDRACRLAKAAFDDAIAELDTLSEESYKDSTLIMQLLRDNLTLWT

Legend:
[1] = system: 14-3-3ε and FOXO3a interaction; details: cells expressing the 9J10 probe; cited from earlier work
14-3-3ε = details: pull-down and mass spectrometry; cited from earlier work
crystal structure = biological target: the molecule itself; assay: crystal structure

| Molecule | Interaction between 14-3-3ε and FOXO3a in cells expressing the probe [1] | 14-3-3 proteins interacting with probe (pull-down, MS) (14-3-3ε) | binding result (crystal structure) |
| --- | --- | --- | --- |
| LNTRPGRRRNpSN [9J10] | sharp reduction in the interaction between 14-3-3ε and FOXO3a | 14-3-3ε is one among the abundant 14-3-3 proteins interacting with 9J10 | – |
| B1 | – | – | binds |
